Measurements reported in US4051237A, “Glycopeptide antibiotics Bu-2231 A and B and process for producing same” (priority 1975, dated 1977).
In brackets after ≈: the same amount, converted by molar mass.

How the values were obtained:
C. neoformans IAM 4514 = assay: MIC by two-fold agar dilution; type: cell-based; settings: Cn-2 C. neoformans IAM 4514; sabouraud agar; unit assumed
C. krusei #96 A15052 = assay: MIC by two-fold agar dilution; type: cell-based; settings: Ck-2 C. krusei #96 A15052; sabouraud agar; unit assumed
P. rettgeri A15167 = assay: MIC by two-fold agar dilution; type: cell-based; settings: Mueller-Hinton agar, unit assumed
E. coli K-12 A9632 = assay: MIC by two-fold agar dilution; type: cell-based; settings: Mueller-Hinton agar, unit assumed
S. aureus #193 = assay: MIC by two-fold agar dilution; type: cell-based; settings: Mueller-Hinton agar, unit assumed
S. cerevisiae IAM 4009 = assay: MIC by two-fold agar dilution; type: cell-based; settings: Sc-2 S. cerevisiae IAM 4009; sabouraud agar; unit assumed
K. pneumoniae A20328 = assay: MIC by two-fold agar dilution; type: cell-based; settings: Mueller-Hinton agar, unit assumed
C. krusei IAM 4489 = assay: MIC by two-fold agar dilution; type: cell-based; settings: Ck-1 C. krusei IAM 4489; sabouraud agar; unit assumed
S. cerevisiae ATCC 9763 = assay: MIC by two-fold agar dilution; type: cell-based; settings: Sc-1 S. cerevisiae ATCC 9763; sabouraud agar; unit assumed
E. coli NIHJ [1] = assay: In vivo activity in experimental mice infection; settings: Table 12
Protocol: The in vivo activity of Bu-2231 complex was evaluated in experimental mice infections against S. aureus Smith and E. coli NIHJ. Bleomycin was tested comparatively as a reference antibiotic.
The in vivo activty of the individual components of Bu-2231 in each of the copper-free and copper complex forms was also determined in E. coli infection.

P. aeruginosa A 9923 = assay: MIC by two-fold agar dilution; type: cell-based; settings: Mueller-Hinton agar, unit assumed
Sporotrichum sp. = assay: MIC by two-fold agar dilution; type: cell-based; settings: Sy-1 Sporotrichum sp.; sabouraud agar; unit assumed
C. albicans IAM 4888 = assay: MIC by two-fold agar dilution; type: cell-based; settings: Ca-1 C. albicans IAM 4888; sabouraud agar; unit assumed
E. coli A20732 = assay: MIC by two-fold agar dilution; type: cell-based; settings: Mueller-Hinton agar, unit assumed
P. aeruginosa A9930 = assay: MIC by two-fold agar dilution; type: cell-based; settings: Mueller-Hinton agar, unit assumed
Mycobacterium 607, D47 = assay: MIC by two-fold agar dilution; type: cell-based; settings: Medium #1001, unit assumed
K. pneumoniae A20680 = assay: MIC by two-fold agar dilution; type: cell-based; settings: Mueller-Hinton agar, unit assumed
C. lunata ATCC 13432 = assay: MIC by two-fold agar dilution; type: cell-based; settings: Cl-1 C. lunata ATCC 13432; sabouraud agar; unit assumed
B. sphaericus #122 = assay: MIC by two-fold agar dilution; type: cell-based; settings: Mueller-Hinton agar, unit assumed
S. aureus BX-1633,A9606 = assay: MIC by two-fold agar dilution; type: cell-based; settings: Mueller-Hinton agar, unit assumed
A. fumigatus IAM 2530 = assay: MIC by two-fold agar dilution; type: cell-based; settings: Af-1 A. fumigatus IAM 2530; sabouraud agar; unit assumed
M. flavus D12 = assay: MIC by two-fold agar dilution; type: cell-based; settings: Mueller-Hinton agar, unit assumed
T. asteroides = assay: MIC by two-fold agar dilution; type: cell-based; settings: Ta-1 T. asteroides; sabouraud agar; unit assumed
B. subtilis PCI-219 = assay: MIC by two-fold agar dilution; type: cell-based; settings: Mueller-Hinton agar, unit assumed
A. niger var Tieghem = assay: MIC by two-fold agar dilution; type: cell-based; settings: An-1 A. niger var Tieghem; sabouraud agar; unit assumed
B. mycoides "0" = type: cell-based; settings: Mueller-Hinton agar, unit assumed
E. coli A20665 = assay: MIC by two-fold agar dilution; type: cell-based; settings: Mueller-Hinton agar, unit assumed
M. canis D-51 = assay: MIC by two-fold agar dilution; type: cell-based; settings: Mc-1 M. canis D-51; sabouraud agar; unit assumed
T. mentagrophytes D-155 = assay: MIC by two-fold agar dilution; type: cell-based; settings: Tm-1 T. mentagrophytes D-155; sabouraud agar; unit assumed
P. vulgaris A9436 = assay: MIC by two-fold agar dilution; type: cell-based; settings: Mueller-Hinton agar, unit assumed
[2] = test system: F. moniliforme NRRL A2284; assay: MIC by two-fold agar dilution; type: cell-based; settings: Fm-1 F. moniliforme NRRL A2284; sabouraud agar; unit assumed
Hormodendrum sp. = assay: MIC by two-fold agar dilution; type: cell-based; settings: Hy-1 Hormodendrum sp.; sabouraud agar; unit assumed
T. rubrum D-55 = assay: MIC by two-fold agar dilution; type: cell-based; settings: Tr-1 T. rubrum D-55; sabouraud agar; unit assumed
E. coli NIHJ [3] = assay: MIC by two-fold agar dilution; type: cell-based; settings: Mueller-Hinton agar, unit assumed
Mycobacterium 607, D87 = assay: MIC by two-fold agar dilution; type: cell-based; settings: Medium #1001, unit assumed
S. marcescens A20333 = assay: MIC by two-fold agar dilution; type: cell-based; settings: Mueller-Hinton agar, unit assumed
S. marcescens A21235 = assay: MIC by two-fold agar dilution; type: cell-based; settings: Mueller-Hinton agar, unit assumed

Cc1c(N)nc([C@H](CC(N)=O)NC[C@@H](N)C(N)=O)nc1C(=O)N[C@H](C(=O)N[C@H](C)[C@@H](O)CC(=O)N[C@@H](C(=O)NC(O[C@@H]1O[C@@H](C)[C@@H](N)[C@@H](O)[C@H]1O)C(O)c1nc(-c2nc(C(=O)NCCCNCCCCN)cs2)cs1)[C@@H](C)O)C(O[C@@H]1O[C@@H](CO)[C@H](O)[C@@H](O)[C@@H]1O[C@H]1O[C@H](CO)[C@@H](O)[C@@H](OC(N)=O)[C@@H]1O)c1cnc[nH]1 (stereo partly drawn) [Bu-2231 B Cu-free]
MIC (C. neoformans IAM 4514): 0.2 µg/mL (≈ 0.125 µM) | MIC (C. krusei #96 A15052): 0.4 µg/mL (≈ 0.249 µM) | MIC (P. rettgeri A15167): 0.8 µg/mL (≈ 0.499 µM) | MIC (E. coli K-12 A9632): 0.1 µg/mL (≈ 0.0624 µM) | MIC (S. aureus #193): 0.4 µg/mL (≈ 0.249 µM) | MIC (S. cerevisiae IAM 4009): 0.2 µg/mL (≈ 0.125 µM) | MIC (K. pneumoniae A20328): 1.6 µg/mL (≈ 0.998 µM) | MIC (C. krusei IAM 4489): 0.4 µg/mL (≈ 0.249 µM) | MIC (S. cerevisiae ATCC 9763): 0.2 µg/mL (≈ 0.125 µM) | PD50 (E. coli NIHJ [1]; E. coli NIHJ infection, mice, sc): 0.065 mg/kg | In vivo activity vs. E. coli NIHJ infection (x/5 mice) (E. coli NIHJ [1]; dose (sc) 0.008): 0/5 | In vivo activity vs. E. coli NIHJ infection (x/5 mice) (E. coli NIHJ [1]; dose (sc) 0.03): 1/5 | In vivo activity vs. E. coli NIHJ infection (x/5 mice) (E. coli NIHJ [1]; dose (sc) 0.13): 4/5 | In vivo activity vs. E. coli NIHJ infection (x/5 mice) (E. coli NIHJ [1]; dose (sc) 0.5): 5/5 | In vivo activity vs. E. coli NIHJ infection (x/5 mice) (E. coli NIHJ [1]; dose (sc) 2): 5/5 | MIC (P. aeruginosa A 9923): > 100 µg/mL | MIC (Sporotrichum sp.): 3.1 µg/mL (≈ 1.93 µM) | MIC (C. albicans IAM 4888): 0.8 µg/mL (≈ 0.499 µM) | MIC (E. coli A20732): 0.2 µg/mL (≈ 0.125 µM) | MIC (P. aeruginosa A9930): 0.8 µg/mL (≈ 0.499 µM) | MIC (Mycobacterium 607, D47): 0.05 µg/mL (≈ 0.0312 µM) | MIC (K. pneumoniae A20680): 25 µg/mL (≈ 15.6 µM) | MIC (C. lunata ATCC 13432): 0.2 µg/mL (≈ 0.125 µM) | MIC (B. sphaericus #122): 0.2 µg/mL (≈ 0.125 µM) | MIC (S. aureus BX-1633,A9606): 0.8 µg/mL (≈ 0.499 µM) | MIC (A. fumigatus IAM 2530): 0.4 µg/mL (≈ 0.249 µM) | MIC (M. flavus D12): 0.4 µg/mL (≈ 0.249 µM) | MIC (T. asteroides): 0.8 µg/mL (≈ 0.499 µM) | MIC (B. subtilis PCI-219): < 0.0063 µg/mL | MIC (A. niger var Tieghem): 0.2 µg/mL (≈ 0.125 µM) | MIC (B. mycoides "0"): 0.2 µg/mL (≈ 0.125 µM) | MIC (E. coli A20665): 0.05 µg/mL (≈ 0.0312 µM) | MIC (M. canis D-51): 0.8 µg/mL (≈ 0.499 µM) | MIC (T. mentagrophytes D-155): 6.3 µg/mL (≈ 3.93 µM) | MIC (P. vulgaris A9436): 0.2 µg/mL (≈ 0.125 µM) | MIC [2]: 0.8 µg/mL (≈ 0.499 µM) | MIC (Hormodendrum sp.): 0.2 µg/mL (≈ 0.125 µM) | MIC (T. rubrum D-55): 0.8 µg/mL (≈ 0.499 µM) | MIC (E. coli NIHJ [3]): 0.2 µg/mL (≈ 0.125 µM) | MIC (Mycobacterium 607, D87): 0.1 µg/mL (≈ 0.0624 µM) | MIC (S. marcescens A20333): 0.8 µg/mL (≈ 0.499 µM) | MIC (S. marcescens A21235): 1.6 µg/mL (≈ 0.998 µM)
